Assay results from patent US10174037B2, “Dihydropyrazolopyrimidinone compounds as PDE2 inhibitors” (Merck Sharp & Dohme Corp., priority 2015, dated 2019).
Like-named read-outs stand apart in the source and are kept apart here.

Columns and labels:
other PDE isoforms = conditions: reported in Brandon et al. 2007; cited from earlier work
[1] = reported in Brandon et al. 2007; cited from earlier work
Rhesus PDE2A3 = Rhesus PDE2A3 (Macaca mulatta, UniProt B3VTJ2); assay: PDE2 fluorescence polarization (IMAP FP) assay, rhesus PDE2A3; type: biochemical, rhesus macaque
human PDE2A1 = human PDE2A1 (Homo sapiens (Human), UniProt O00408); assay: PDE selectivity IMAP FP assay, human PDE2A1; type: biochemical; conditions: Human PDE2
Method in brief: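 IMAP fluorescence polarization assay; PDE2 substrate 50 nM FAM-cAMP containing 1000 nM cGMP, enzyme diluted for 20% substrate conversion, in 10 mM Tris HCl pH 7.2, 10 mM MgCl2, 1 mM DTT. Reaction 60 min at room temperature, stopped with IMAP binding solution; polarization read after 1 h. Ki reported.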

[2] = Lab A, read-out: Rhesus PDE2 Ki (nM) Lab A
[3] = Lab B, read-out: Rhesus PDE2 Ki (nM) Lab B
[4] = Lab A, read-out: Human PDE2 Ki (nM) Lab A
[5] = Lab B, read-out: Human PDE2 Ki (nM) Lab B

Sequence of human PDE2A1 (O00408 other isoform, or with tags, fused parts or gaps): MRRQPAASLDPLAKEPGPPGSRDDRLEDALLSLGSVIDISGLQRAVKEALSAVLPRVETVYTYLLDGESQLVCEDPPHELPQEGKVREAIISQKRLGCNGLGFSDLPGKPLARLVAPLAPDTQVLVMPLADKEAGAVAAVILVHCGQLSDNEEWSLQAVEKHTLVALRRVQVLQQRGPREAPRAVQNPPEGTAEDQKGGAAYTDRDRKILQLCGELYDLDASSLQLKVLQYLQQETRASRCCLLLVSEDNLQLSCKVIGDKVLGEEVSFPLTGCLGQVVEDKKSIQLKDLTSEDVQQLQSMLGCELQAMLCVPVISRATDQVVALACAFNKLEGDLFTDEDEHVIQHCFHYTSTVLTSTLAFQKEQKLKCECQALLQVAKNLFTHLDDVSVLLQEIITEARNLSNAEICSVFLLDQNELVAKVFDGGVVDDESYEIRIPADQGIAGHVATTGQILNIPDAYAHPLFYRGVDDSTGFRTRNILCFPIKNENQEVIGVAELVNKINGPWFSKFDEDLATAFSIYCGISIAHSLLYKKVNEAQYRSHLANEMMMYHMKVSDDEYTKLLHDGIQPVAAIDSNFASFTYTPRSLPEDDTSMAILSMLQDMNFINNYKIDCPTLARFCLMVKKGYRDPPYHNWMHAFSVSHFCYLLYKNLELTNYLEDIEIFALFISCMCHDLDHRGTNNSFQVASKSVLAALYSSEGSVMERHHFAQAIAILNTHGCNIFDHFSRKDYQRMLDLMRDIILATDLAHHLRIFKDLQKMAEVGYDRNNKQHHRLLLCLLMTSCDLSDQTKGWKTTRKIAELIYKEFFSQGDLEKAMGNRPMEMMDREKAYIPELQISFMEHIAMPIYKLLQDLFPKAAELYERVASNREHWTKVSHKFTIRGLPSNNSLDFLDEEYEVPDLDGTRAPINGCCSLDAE
Sequence of Rhesus PDE2A3 (B3VTJ2 1-941): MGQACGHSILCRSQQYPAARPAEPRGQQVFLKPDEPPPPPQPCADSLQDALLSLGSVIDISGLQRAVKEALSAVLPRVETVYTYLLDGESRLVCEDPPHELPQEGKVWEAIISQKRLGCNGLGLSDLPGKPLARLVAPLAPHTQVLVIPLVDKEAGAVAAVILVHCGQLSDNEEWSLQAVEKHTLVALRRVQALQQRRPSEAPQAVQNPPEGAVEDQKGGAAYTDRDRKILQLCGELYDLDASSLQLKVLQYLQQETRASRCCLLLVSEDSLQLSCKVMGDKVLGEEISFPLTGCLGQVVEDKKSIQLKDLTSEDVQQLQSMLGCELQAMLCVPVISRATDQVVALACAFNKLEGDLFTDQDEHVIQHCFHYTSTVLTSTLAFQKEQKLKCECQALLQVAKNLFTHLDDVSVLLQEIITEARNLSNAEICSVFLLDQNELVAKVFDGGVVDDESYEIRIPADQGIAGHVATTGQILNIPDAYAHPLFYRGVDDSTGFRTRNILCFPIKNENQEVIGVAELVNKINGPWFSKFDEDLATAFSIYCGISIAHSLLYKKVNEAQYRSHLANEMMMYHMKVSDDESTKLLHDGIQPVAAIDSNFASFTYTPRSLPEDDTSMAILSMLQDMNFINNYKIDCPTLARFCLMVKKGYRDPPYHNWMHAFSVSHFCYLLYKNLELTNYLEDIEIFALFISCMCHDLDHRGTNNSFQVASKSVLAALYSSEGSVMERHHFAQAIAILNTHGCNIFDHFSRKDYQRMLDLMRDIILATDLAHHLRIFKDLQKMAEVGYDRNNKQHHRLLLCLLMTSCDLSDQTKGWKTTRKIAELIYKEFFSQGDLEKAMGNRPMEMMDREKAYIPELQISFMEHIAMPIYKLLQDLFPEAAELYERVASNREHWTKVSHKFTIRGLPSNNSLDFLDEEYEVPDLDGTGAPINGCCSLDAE

Question: Which “potency at other PDE isoforms” value (other PDE isoforms) does the source give for `COc1ccc(Cc2nn3c([C@@H](CCCc4ccccc4)[C@@H](C)O)nc(C)c3c(=O)[nH]2)cc1OC` [BAY 60-7550] here?
Answer: The value was “significant potency”.

Question: And the brain penetration [1]?
Answer: The brain penetration was “limited”.

Question: For `Cc1ccc(C(C)n2nc(CCl)c3c(=O)[nH]c(O)nc32)cc1` (stereo not shown) [Example 57, 3-(Chloromethyl)-6-hydroxy-1-(1-p-tolylethyl)-1H-pyrazolo[3,4-d]pyrimidin-4(5H)-one], which Ki (Rhesus PDE2A3; [2]) is on record?
Answer: Its Ki is 26 nM.

Question: And the Ki (Rhesus PDE2A3; [3])?
Answer: Its Ki is 40 nM.

Question: What about the Ki (human PDE2A1; [4]) of the same molecule?
Answer: The Ki was 11 nM.

Question: What about the Ki (human PDE2A1; [5]) of the same molecule?
Answer: Its Ki is 28 nM.

Question: With `Cc1nn(C(C)c2ccc(C(F)(F)F)cc2)c2nc(O)[nH]c(=O)c12` (stereo not shown) [Example 58, 6-Hydroxy-3-methyl-1-{1-[4-(trifluoromethyl)phenyl]ethyl}-1,5-dihydro-4H-pyrazolo[3,4-d]pyrimidin-4-one] as the molecule, how does the Ki (Rhesus PDE2A3; [2]) read?
Answer: The Ki was 69 nM.

Question: And the Ki (human PDE2A1; [4])?
Answer: The Ki was 49 nM.

Question: With `COc1nc2c(c(C)nn2C(C)c2ccc(C(F)(F)F)cc2)c(=O)[nH]1` (stereo not shown) [Example 59, 6-Methoxy-3-methyl-1-{1-[4-(trifluoromethyl)phenyl]ethyl}-1,5-dihydro-4H-pyrazolo[3,4-d]pyrimidin-4-one] as the molecule, how does the Ki (Rhesus PDE2A3; [2]) read?
Answer: Its Ki is 1140 nM.

Question: What about the Ki (human PDE2A1; [4]) of the same molecule?
Answer: The Ki was 760 nM.

Question: For `Cc1nn(C(C)c2ccc(OC(F)(F)F)cc2)c2nc(O)[nH]c(=O)c12` (stereo not shown) [Example 60, 6-Hydroxy-3-methyl-1-{1-[4-(trifluoromethoxy)phenyl]ethyl}-1,5-dihydro-4H-pyrazolo[3,4-d]pyrimidin-4-one], which Ki (Rhesus PDE2A3; [2]) is on record?
Answer: The Ki was 278 nM.

Question: And the Ki (human PDE2A1; [4])?
Answer: The Ki was 207 nM.

Question: Which Ki (Rhesus PDE2A3; [3]) does the source give for `C[C@@H](c1ccc(C(F)(F)F)cc1)n1nc(CO)c2c(=O)[nH]c(N(C)C)nc21` [Example 154, (S)-6-(Dimethylamino)-3-(hydroxymethyl)-1-(1-(4-(trifluoromethyl)phenyl)ethyl)-1H-pyrazolo[3,4-d]pyrimidin-4(5H)-one] here?
Answer: Its Ki is 0.57 nM.

Question: What about the Ki (human PDE2A1; [5]) of the same molecule?
Answer: The Ki was 0.55 nM.

Question: For `C[C@@H](c1ccc(C(F)(F)F)cc1)n1nc(CO)c2c(=O)[nH]c(N3CCCC3)nc21` [Example 156, 3-(Hydroxymethyl)-6-pyrrolidin-1-yl-1-{(1S)-1-[4-(trifluoromethyl)phenyl]ethyl}-1,5-dihydro-4H-pyrazolo[3,4-d]pyrimidin-4-one], which Ki (Rhesus PDE2A3; [3]) is on record?
Answer: Its Ki is 0.47 nM.

Question: What about the Ki (human PDE2A1; [5]) of the same molecule?
Answer: The Ki was 0.5 nM.

Question: With `C[C@@H](c1ccc(C(F)(F)F)cc1)n1nc(CO)c2c(=O)[nH]c(N3CC(F)C3)nc21` [Example 161, 6-(3-Fluoroazetidin-1-yl)-3-(hydroxymethyl)-1-{(1S)-1-[4-(trifluoromethyl)phenyl]ethyl}-1,5-dihydro-4H-pyrazolo[3,4-d]pyrimidin-4-one] as the molecule, how does the Ki (Rhesus PDE2A3; [3]) read?
Answer: The Ki was 1.9 nM.

Question: What about the Ki (human PDE2A1; [5]) of the same molecule?
Answer: Its Ki is 1.6 nM.

Question: For `C[C@@H](c1ccc(C(F)(F)F)cc1)n1nc(CF)c2c(=O)[nH]c(N3CCC3)nc21` [Example 225, 6-Azetidin-1-yl-3-(fluoromethyl)-1-{(1S)-1-[4-(trifluoromethyl)phenyl]ethyl}-1,5-dihydro-4H-pyrazolo[3,4-d]pyrimidin-4-one], which Ki (Rhesus PDE2A3; [3]) is on record?
Answer: Its Ki is 0.4 nM.

Question: What about the Ki (human PDE2A1; [5]) of the same molecule?
Answer: Its Ki is 0.41 nM.

Question: For `C[C@@H](c1ccc(C(F)(F)F)cc1)n1nc(CF)c2c(=O)[nH]c(N3CCCC3)nc21` [Example 226, 3-(Fluoromethyl)-6-pyrrolidin-1-yl-1-{(1S)-1-[4-(trifluoromethyl)phenyl]ethyl}-1,5-dihydro-4H-pyrazolo[3,4-d]pyrimidin-4-one], which Ki (Rhesus PDE2A3; [3]) is on record?
Answer: Its Ki is 0.26 nM.

Question: What about the Ki (human PDE2A1; [5]) of the same molecule?
Answer: Its Ki is 0.22 nM.

Question: Which results are given for `Cc1nn(C(C)c2ccc(C(F)(F)F)cc2)c2nc(N3CCCC3)[nH]c(=O)c12` (stereo not shown) [Example 268, 3-Methyl-6-pyrrolidin-1-yl-1-{1-[4-(trifluoromethyl)phenyl]ethyl}-1,5-dihydro-4H-pyrazolo[3,4-d]pyrimidin-4-one]?
Answer: Ki (Rhesus PDE2A3; [2]): 8 nM; Ki (human PDE2A1; [4]): 5.6 nM

Question: What does the source list for `CNc1nc2c(c(C)nn2C(C)c2ccc(C(F)(F)F)cc2)c(=O)[nH]1` (stereo not shown) [Example 269, 3-Methyl-6-(methylamino)-1-(1-(4-(trifluoromethyl)phenyl)ethyl)-1,5-dihydro-4H-pyrazolo[3,4-d]pyrimidin-4-one]?
Answer: Ki (Rhesus PDE2A3; [2]): 139 nM; Ki (human PDE2A1; [4]): 85 nM

Question: With `Cc1nn(C(C)c2ccc(C(F)(F)F)cc2)c2nc(N(C)C)[nH]c(=O)c12` (stereo not shown) [Example 270, 6-(Dimethylamino)-3-methyl-1-{1-[4-(trifluoromethyl)phenyl]ethyl}-1,5-dihydro-4H-pyrazolo[3,4-d]pyrimidin-4-one] as the molecule, how does the Ki (Rhesus PDE2A3; [2]) read?
Answer: The Ki was 6 nM.

Question: What about the Ki (human PDE2A1; [4]) of the same molecule?
Answer: The Ki was 3.9 nM.

Question: With `C[C@@H](c1ccc(C(F)(F)F)cc1)n1nc(CCO)c2c(=O)[nH]c(O)nc21` [Example 293, (S)-6-Hydroxy-3-(2-hydroxyethyl)-1-(1-(4-(trifluoromethyl)phenyl)ethyl)-1H-pyrazolo[3,4-d]pyrimidin-4(5H)-one] as the molecule, how does the Ki (Rhesus PDE2A3; [3]) read?
Answer: The Ki was 12 nM.

Question: What about the Ki (human PDE2A1; [5]) of the same molecule?
Answer: Its Ki is 10 nM.

Question: What does the source list for `C[C@@H](c1ccc(C(F)(F)F)cc1)n1nc(CC#N)c2c(=O)[nH]c(O)nc21` [Example 298, (S)-2-(6-Hydroxy-4-oxo-1-(1-(4-(trifluoromethyl)phenyl)ethyl)-4,5-dihydro-1H-pyrazolo[3,4-d]pyrimidin-3-yl)acetonitrile]?
Answer: Ki (Rhesus PDE2A3; [3]): 5 nM; Ki (human PDE2A1; [5]): 4.7 nM

Question: What does the source list for `COCc1nn([C@@H](C)c2ccc(C(F)(F)F)cc2)c2nc(O)[nH]c(=O)c12` [Example 304, (S)-6-Hydroxy-3-(methoxymethyl)-1-(1-(4-(trifluoromethyl)phenyl)ethyl)-1,5-dihydro-4H-pyrazolo[3,4-d]pyrimidin-4-one]?
Answer: Ki (Rhesus PDE2A3; [3]): 43 nM; Ki (human PDE2A1; [5]): 46 nM
